These results are taken from ChEMBL document CHEMBL1240385, “Detection of KPC in Acinetobacter spp. in Puerto Rico” (2010).

Format in all cases: functional
Assay [1] can be described thus: (§1) Antibacterial activity against Acinetobacter calcoaceticus/baumannii complex isolate C1AC9-24 expressing KPC beta lactamase.
Another assay relates to Pseudomonas aeruginosa. Description: Antibacterial activity against Pseudomonas aeruginosa ATCC 27853 […].
The nature of assay [2]: (§2) Antibacterial activity against Acinetobacter calcoaceticus/baumannii complex isolate N2AC9-18 expressing KPC beta lactamase.
The nature of assay [3]: (§3) Antibacterial activity against Acinetobacter calcoaceticus/baumannii complex isolate M3AC9-7 expressing KPC beta lactamase.
The nature of assay [4]: (§4) Antibacterial activity against Acinetobacter calcoaceticus/baumannii complex isolate M3AC9-4 expressing KPC beta lactamase.
Assay [5] in a line: (§5) Antibacterial activity against Acinetobacter calcoaceticus/baumannii complex isolate MC1AC9-26 expressing KPC beta lactamase.
Assay [6] in a line: (§6) Antibacterial activity against Acinetobacter calcoaceticus/baumannii complex isolate M2AC9-31 expressing KPC beta lactamase.
Assay [7] in a line: (§7) Antibacterial activity against Acinetobacter calcoaceticus/baumannii complex isolate M3AC9-2 expressing KPC beta lactamase.
A short description of assay [8]: (§8) Antibacterial activity against Acinetobacter calcoaceticus/baumannii complex isolate N2AC9-19 expressing KPC beta lactamase.
The nature of assay [9]: (§9) Antibacterial activity against Acinetobacter calcoaceticus/baumannii complex isolate M3AC9-6 expressing KPC beta lactamase.
A short description of assay [10]: (§10) Antibacterial activity against Acinetobacter calcoaceticus/baumannii complex isolate MC4AC9-30 expressing KPC beta lactamase.
Assay [11] in a line: (§11) Antibacterial activity against Acinetobacter calcoaceticus/baumannii complex isolate W2AC8-S10 expressing OXA-51.
A further assay relates to Escherichia coli. Description: Antibacterial activity against Escherichia coli ATCC 25922 […].
For assay [12], the system named is Acinetobacter calcoaceticus/baumannii complex. The assay is described as §1.
For assay [13] the test system is unchanged. The assay is described as §2.
For assay [14] the test system is unchanged. The description is as §3.
Assay [15] has the same test system. Described as §4.
For assay [16] the test system is unchanged. The description is as §5.
Assay [17] shares this test system. Described as §6.
For assay [18] the test system is unchanged. The assay is described as §7.
Assay [19] has the same test system. The assay is described as §8.
For assay [20] the test system is unchanged. The description is as §9.
The test system is the same in assay [21]. The description is as §10.
The test system is the same in assay [22]. Described as §11.

≈ marks a conversion by molar mass, not a printed value.

In general, MIC refers to the lowest concentration that inhibits growth of the organism. Take `NCC[C@H](O)C(=O)N[C@@H]1C[C@H](N)[C@@H](O[C@H]2O[C@H](CN)[C@@H](O)[C@H](O)[C@H]2O)[C@H](O)[C@H]1O[C@H]1O[C@H](CO)[C@@H](O)[C@H](N)[C@H]1O` [AMIKACIN]: the MIC was greater than 32 µg/mL in [1]; less than 4 µg/mL in the assay on Pseudomonas aeruginosa; greater than 32 µg/mL in assay [2]; greater than 32 µg/mL in assay [3]; greater than 32 µg/mL in [4]; greater than 32 µg/mL in assay [5]. Besides, the MIC was greater than 32 µg/mL in assay [6]; greater than 32 µg/mL in assay [7]; greater than 32 µg/mL in assay [8]; greater than 32 µg/mL in [9]; greater than 32 µg/mL in assay [10]; 4 µg/mL (≈ 6.83 µM) in assay [11]. The molecule also registered an MIC against Escherichia coli of 4 µg/mL (≈ 6.83 µM).
As to `C[C@H]1COc2c(N3CCN(C)CC3)c(F)cc3c(=O)c(C(=O)O)cn1c23.C[C@H]1COc2c(N3CCN(C)CC3)c(F)cc3c(=O)c(C(=O)O)cn1c23.O` [LEVOFLOXACIN], the MIC in assay [1] is greater than 8 µg/mL; against Pseudomonas aeruginosa, less than 1 µg/mL; in assay [2], greater than 8 µg/mL; in assay [3] it was greater than 8 µg/mL; in assay [4], greater than 8 µg/mL; in assay [5], greater than 8 µg/mL. Moreover, the MIC in assay [6] was greater than 8 µg/mL; in assay [7], greater than 8 µg/mL; in [8], greater than 8 µg/mL; in assay [9], greater than 8 µg/mL; in assay [10], greater than 8 µg/mL; in assay [11], 1 µg/mL.
Turning to `CC(C)(O/N=C(\C(=O)N[C@@H]1C(=O)N2C(C(=O)[O-])=C(C[n+]3ccccc3)CS[C@H]12)c1csc(N)n1)C(=O)O` [CEFTAZIDIME], the minimum inhibitory concentration (MIC) was greater than 16 µg/mL in assay [1]; 2 µg/mL (≈ 3.66 µM) against Pseudomonas aeruginosa; greater than 16 µg/mL in assay [2]; greater than 16 µg/mL in assay [3]; greater than 16 µg/mL in assay [4]; greater than 16 µg/mL in assay [5]. Further, the MIC was greater than 16 µg/mL in assay [6]; greater than 16 µg/mL in [7]; greater than 16 µg/mL in assay [8]; greater than 16 µg/mL in assay [9]; greater than 16 µg/mL in assay [10]; 2 µg/mL (≈ 3.66 µM) in [11]. In the assay with Escherichia coli, this molecule registered an MIC of 1 µg/mL (≈ 1.83 µM).
Turning to `C[C@@H](O)[C@H]1C(=O)N2C(C(=O)O)=C(S[C@@H]3CN[C@H](CNS(N)(=O)=O)C3)[C@H](C)[C@H]12` [DORIPENEM], the MIC in assay [1] was greater than 2 µg/mL; against Pseudomonas aeruginosa, 0.5 µg/mL (≈ 1.19 µM); in [2], greater than 2 µg/mL; in assay [3] it was greater than 2 µg/mL; in [4], greater than 2 µg/mL; in assay [5], greater than 2 µg/mL. For the same molecule, the MIC in assay [6] was greater than 2 µg/mL; in assay [7] it was greater than 2 µg/mL; in [8], greater than 2 µg/mL; in assay [9], greater than 2 µg/mL; in assay [10] it was greater than 2 µg/mL; in assay [11] it was 0.12 µg/mL (≈ 0.285 µM). Besides, the MIC in the assay on Escherichia coli worked out at 0.12 µg/mL (≈ 0.285 µM).
With `CN(C)c1cc(NC(=O)CNC(C)(C)C)c(O)c2c1C[C@H]1C[C@H]3[C@H](N(C)C)C(O)=C(C(N)=O)C(=O)[C@@]3(O)C(O)=C1C2=O` [TIGECYCLINE], the MIC in assay [1] is 1 µg/mL (≈ 1.71 µM); in the assay on Pseudomonas aeruginosa, 8 µg/mL (≈ 13.7 µM); in [2] it was 1 µg/mL (≈ 1.71 µM); in assay [3], 0.5 µg/mL (≈ 0.854 µM); in [4], 0.25 µg/mL (≈ 0.427 µM); in [5], 2 µg/mL (≈ 3.41 µM). The MIC was 1 µg/mL (≈ 1.71 µM) in assay [6]; 0.5 µg/mL (≈ 0.854 µM) in assay [7]; 2 µg/mL (≈ 3.41 µM) in assay [8]; 0.5 µg/mL (≈ 0.854 µM) in [9]; 0.5 µg/mL (≈ 0.854 µM) in [10]; less than 0.25 µg/mL in assay [11]. Further, inhibition of growth in the assay on Escherichia coli (MIC) required 0.25 µg/mL (≈ 0.427 µM).
Turning to `CN(C)c1ccc(O)c2c1C[C@H]1C[C@H]3[C@H](N(C)C)C(O)=C(C(N)=O)C(=O)[C@@]3(O)C(O)=C1C2=O` [MINOCYCLINE], the MIC in [1] was 8 µg/mL (≈ 17.5 µM); against Pseudomonas aeruginosa it was 16 µg/mL (≈ 35 µM); in assay [2], less than 2 µg/mL; in [3], less than 2 µg/mL; in [4], 4 µg/mL (≈ 8.74 µM); in [5], less than 2 µg/mL. The MIC in assay [6] is less than 2 µg/mL; in assay [7], less than 2 µg/mL; in assay [8], less than 2 µg/mL; in [9], less than 2 µg/mL; in [10], 4 µg/mL (≈ 8.74 µM); in [11], 2 µg/mL (≈ 4.37 µM). Moreover, in the assay with Escherichia coli, the MIC stood at 2 µg/mL (≈ 4.37 µM).
As for `CO/N=C(\C(=O)N[C@@H]1C(=O)N2C(C(=O)[O-])=C(C[N+]3(C)CCCC3)CS[C@H]12)c1csc(N)n1`, the MIC in assay [1] is greater than 16 µg/mL; against Pseudomonas aeruginosa, less than 2 µg/mL; in assay [2] it was greater than 16 µg/mL; in assay [3], greater than 16 µg/mL; in [4] it was greater than 16 µg/mL; in assay [5], greater than 16 µg/mL. The MIC is greater than 16 µg/mL in [6]; greater than 16 µg/mL in assay [7]; greater than 16 µg/mL in assay [8]; greater than 16 µg/mL in assay [9]; greater than 16 µg/mL in [10]; 2 µg/mL (≈ 4.16 µM) in [11]. Also, it took 2 µg/mL (≈ 4.16 µM) to inhibit growth in the assay on Escherichia coli (MIC).
As to POLYMYXIN B, the MIC in assay [12] was 0.5 µg/mL; with Pseudomonas aeruginosa, 1 µg/mL; in assay [13], less than 0.25 µg/mL; in [14], 0.5 µg/mL; in assay [15], less than 0.25 µg/mL; in assay [16] it was less than 0.25 µg/mL. Further, the MIC in [17] is less than 0.25 µg/mL; in [18], less than 0.25 µg/mL; in assay [19], less than 0.25 µg/mL; in assay [20], 0.5 µg/mL; in [21] it was 0.5 µg/mL; in assay [22], 0.5 µg/mL. In addition, the MIC in the assay on Escherichia coli was determined as 0.25 µg/mL.
Consider COLISTIN, for which the minimal inhibitory concentration (MIC) was 1 µg/mL in assay [12]; 1 µg/mL in the assay on Pseudomonas aeruginosa; 0.5 µg/mL in assay [13]; 1 µg/mL in assay [14]; 1 µg/mL in [15]; 0.5 µg/mL in [16]. In addition, the MIC in [17] is 0.5 µg/mL; in assay [18] it was 0.5 µg/mL; in assay [19], 0.5 µg/mL; in assay [20], 1 µg/mL; in [21], 0.5 µg/mL; in assay [22], 0.25 µg/mL. This molecule also yielded an MIC in the assay with Escherichia coli of 0.25 µg/mL.
For `CO/N=C(\C(=O)N[C@@H]1C(=O)N2C(C(=O)O)=C(COC(C)=O)CS[C@H]12)c1csc(N)n1` [CEFOTAXIME], the MIC was greater than 32 µg/mL in [1]; 16 µg/mL (≈ 35.1 µM) in the assay on Pseudomonas aeruginosa; greater than 32 µg/mL in [2]; greater than 32 µg/mL in assay [3]; greater than 32 µg/mL in [4]; greater than 32 µg/mL in assay [5]. Moreover, the MIC in assay [6] is greater than 32 µg/mL; in assay [7], greater than 32 µg/mL; in assay [8] it was greater than 32 µg/mL; in [9], greater than 32 µg/mL; in assay [10], greater than 32 µg/mL; in assay [11] it was 4 µg/mL (≈ 8.78 µM). Besides, in the assay on Escherichia coli, the MIC amounted to 1 µg/mL (≈ 2.2 µM).
Consider `O=C(O)c1cn(C2CC2)c2cc(N3CCNCC3)c(F)cc2c1=O` [CIPROFLOXACIN], for which the MIC in [11] was 0.25 µg/mL (≈ 0.754 µM).
For GENTAMICIN, the MIC in [12] was greater than 8 µg/mL; with Pseudomonas aeruginosa, less than 1 µg/mL; in assay [13] it was greater than 8 µg/mL; in assay [14], less than 1 µg/mL; in [15], greater than 8 µg/mL; in assay [16] it was 8 µg/mL. Moreover, the MIC in [17] was greater than 8 µg/mL; in assay [18], 2 µg/mL; in [19], greater than 8 µg/mL; in [20] it was 2 µg/mL; in [21] it was greater than 8 µg/mL; in assay [22] it was 1 µg/mL. Besides, the MIC in the assay with Escherichia coli came out at 1 µg/mL.
As to `C[C@@H](O)[C@H]1C(=O)N2C(C(=O)O)=C(SCCNC=N)C[C@H]12` [IMIPENEM ANHYDROUS], the MIC is 4 µg/mL (≈ 13.4 µM) in assay [1]; 2 µg/mL (≈ 6.68 µM) with Pseudomonas aeruginosa; greater than 8 µg/mL in assay [2]; greater than 8 µg/mL in assay [3]; greater than 8 µg/mL in [4]; 8 µg/mL (≈ 26.7 µM) in assay [5]. Besides, the MIC was 8 µg/mL (≈ 26.7 µM) in [6]; greater than 8 µg/mL in assay [7]; greater than 8 µg/mL in assay [8]; greater than 8 µg/mL in assay [9]; 8 µg/mL (≈ 26.7 µM) in assay [10]; 1 µg/mL (≈ 3.34 µM) in [11]. This molecule also gave an MIC with Escherichia coli of 1 µg/mL (≈ 3.34 µM).
On to `C[C@@H](O)[C@H]1C(=O)N2C(C(=O)O)=C(S[C@@H]3CN[C@H](C(=O)N(C)C)C3)[C@H](C)[C@H]12` [MEROPENEM], for which the MIC in [1] was 4 µg/mL (≈ 10.4 µM); against Pseudomonas aeruginosa, less than 1 µg/mL; in [2], greater than 8 µg/mL; in assay [3] it was greater than 8 µg/mL; in assay [4], greater than 8 µg/mL; in assay [5], greater than 8 µg/mL. Moreover, the MIC in assay [6] was greater than 8 µg/mL; in assay [7] it was greater than 8 µg/mL; in [8] it was greater than 8 µg/mL; in [9] it was greater than 8 µg/mL; in assay [10] it was greater than 8 µg/mL; in assay [11], 1 µg/mL (≈ 2.61 µM). Also, 1 µg/mL (≈ 2.61 µM) was the least that counted as inhibitory with Escherichia coli (MIC).
